Results published in paper PMC10714133 (RSC Advances, 2023).

Columns and labels:
P. knowlesi A1H1 = assay: Plasmodium lactate dehydrogenase; format: cell-based, Plasmodium knowlesi; conditions: for Selectivity index (SI) P. knowlesi: IC50 WRL-68 / EC50 PkA1H1; for Antimalarial activity class against A1H1 strain: class by EC50 threshold; for EC50 against A1H1 strain, fold higher than CQ: relative to chloroquine diphosphate
P. falciparum 3D7 = assay: Plasmodium lactate dehydrogenase; format: cell-based, Plasmodium falciparum; conditions: for Selectivity index (SI) P. falciparum: IC50 WRL-68 / EC50 Pf3D7; for Antimalarial activity class against 3D7 strain: class by EC50 threshold; for EC50 against 3D7, fold higher than CQ: relative to chloroquine diphosphate
[1] = test system: WRL-68 cell (human normal liver cell line); assay: MTT cytotoxicity assay; format: cell-based; conditions: read-out: WRL-68 cell (mammalian cell) IC50 (μM) ± SD, 72 hours incubation

SMILES | Selectivity index (SI) P. knowlesi (P. knowlesi A1H1) | Selectivity index (SI) P. falciparum (P. falciparum 3D7) | further results
CCN(CC)CCCC(C)Nc1ccnc2cc(Cl)ccc12 (stereo not drawn) [CQ, chloroquine diphosphate, reference compound] | >2500 | >2500 | 
O=C(/C=C/c1ccc(O)cc1)c1ccc(F)cc1 [Compound 1b, (E)-1-(4-Fluorophenyl)-3-(4-hydroxyphenyl)prop-2-en-1-one] | 0.14 |  | 
O=C(/C=C/c1cccc(O)c1)c1ccc(F)cc1 [Compound 1a, (E)-1-(4-Fluorophenyl)-3-(3-hydroxyphenyl)prop-2-en-1-one] | 1.34 | 1.50 | 
CC1CCN(Cc2ccc(/C=C/C(=O)c3ccc(Cl)cc3)cc2O)CC1 [Compound 2g, (E)-1-(4-Chlorophenyl)-3-(3-hydroxy-4-((4-methylpiperidin-1-yl)methyl)phenyl)prop-2-en-1-one] | 0.47 | 0.54 | 
CC1CCN(Cc2cc(/C=C/C(=O)c3ccc(Cl)cc3)ccc2O)CC1 [Compound 2f, (E)-1-(4-Chlorophenyl)-3-(4-hydroxy-3-((4-methylpiperidin-1-yl)methyl)phenyl)prop-2-en-1-one] | 4.10 | 4.73 | Antimalarial activity class against A1H1 strain (P. knowlesi A1H1): active; Antimalarial activity class against 3D7 strain (P. falciparum 3D7): good
O=C(/C=C/c1ccc(O)c(CN2CCOCC2)c1)c1ccc(F)cc1 [Compound 2b, (E)-1-(4-Fluorophenyl)-3-(4-hydroxy-3-(morpholinomethyl)phenyl)prop-2-en-1-one] | 0.65 |  | 
O=C(/C=C/c1ccc(CN2CCCCC2)c(O)c1)c1ccc(F)cc1 [Compound 2a, (E)-1-(4-Fluorophenyl)-3-(3-hydroxy-4-(piperidin-1-ylmethyl)phenyl)prop-2-en-1-one] | 10.50 |  | Antimalarial activity class against A1H1 strain (P. knowlesi A1H1): active; EC50 against A1H1 strain, fold higher than CQ (P. knowlesi A1H1): about 66 fold; Antimalarial activity class against 3D7 strain (P. falciparum 3D7): potential (EC50 < 1 μM as potential activity); EC50 against 3D7, fold higher than CQ (P. falciparum 3D7): about 48 fold
O=C(/C=C/c1ccc(O)cc1)c1ccc(Cl)cc1 [Compound 1c, (E)-1-(4-Chlorophenyl)-3-(4-hydroxyphenyl)prop-2-en-1-one] | 0.52 |  | 
O=C(/C=C/c1cccc(O)c1)c1ccc(Cl)cc1 [Compound 1d, (E)-1-(4-Chlorophenyl)-3-(3-hydroxyphenyl)prop-2-en-1-one] | 0.31 |  | 
O=C(/C=C/c1ccc(CN2CCCCC2)c(O)c1)c1ccc(Br)cc1 [Compound 2h, (E)-1-(4-Bromophenyl)-3-(3-hydroxy-4-(piperidin-1-ylmethyl)phenyl)prop-2-en-1-one] |  |  | EC50 against A1H1 strain, fold higher than CQ (P. knowlesi A1H1): about 3 fold; Antimalarial activity class against 3D7 strain (P. falciparum 3D7): potential (EC50 < 1 μM as potential activity); EC50 against 3D7, fold higher than CQ (P. falciparum 3D7): 83 fold; IC50 [1]: > 99 µM
O=C(/C=C/c1ccc(O)c(CN2CCCCC2)c1)c1ccc(F)cc1 [Compound 2c, (E)-1-(4-Fluorophenyl)-3-(4-hydroxy-3-(piperidin-1-ylmethyl)phenyl)prop-2-en-1-one] | 1.09 |  | 
